Results published in patent US20240199654A1, “CTLA-4 SMALL MOLECULE DEGRADATION AGENT AND APPLICATION THEREOF” (SUZHOU GUOKUANG PHARMTECH. CO., LTD., priority 2021, published 2024).

Target: T1, LRBA and CTLA-4 reporting system (Homo sapiens, UniProt P16410+P50851)
T1 construct: expressed in transfected cells; host or cells: HEK293
Assay: LRBA/CTLA-4 protein-protein interaction reporting system, dual luciferase assay in HEK293 cells
Type: cell-based
Details: HEK293 cells co-transfected with LRBA and CTLA-4 reporting system, 24 h after dosing; read-out: In vitro activity (IC50: concentration of compounds that inhibit 50% of reporting system activity)
Description: HEK293 cells were spread on 96-well plates, and LRBA and CTLA-4 reporting system were co-transfected into HEK293 cells after 24 h. After 24 h, different compounds with final concentrations of 0.01, 0.033, 0.10, 0.33, 1.00, 3.33, 10.00, 33.33, and 100.00 μM were added. 24 h after dosing, the cell culture medium was removed and the cells were washed with cold PBS. Then the activity of the compounds were detected by the dual luciferase assay kit, and IC50 values were calculated according to the results.
For the compounds with strong activity (IC50<200 nM), the degradation of CTLA-4 protein was further detected by Western Blot. • IC50: Concentration of compounds that inhibit 50% of reporting system activity The size of IC50 is divided into four levels: • ++++, IC50<200 nM; +++, IC50 is 200-1000 nM; ++, IC50 is 1000-2000 nM; +, IC50>2000 nM.

T1 sequence (P16410 36-223): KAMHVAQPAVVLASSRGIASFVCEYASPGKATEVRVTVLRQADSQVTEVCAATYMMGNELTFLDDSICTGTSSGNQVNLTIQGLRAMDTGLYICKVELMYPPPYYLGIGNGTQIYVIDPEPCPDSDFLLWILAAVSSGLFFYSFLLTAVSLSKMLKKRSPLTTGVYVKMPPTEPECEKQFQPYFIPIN
T1 sequence (P50851 whole entry): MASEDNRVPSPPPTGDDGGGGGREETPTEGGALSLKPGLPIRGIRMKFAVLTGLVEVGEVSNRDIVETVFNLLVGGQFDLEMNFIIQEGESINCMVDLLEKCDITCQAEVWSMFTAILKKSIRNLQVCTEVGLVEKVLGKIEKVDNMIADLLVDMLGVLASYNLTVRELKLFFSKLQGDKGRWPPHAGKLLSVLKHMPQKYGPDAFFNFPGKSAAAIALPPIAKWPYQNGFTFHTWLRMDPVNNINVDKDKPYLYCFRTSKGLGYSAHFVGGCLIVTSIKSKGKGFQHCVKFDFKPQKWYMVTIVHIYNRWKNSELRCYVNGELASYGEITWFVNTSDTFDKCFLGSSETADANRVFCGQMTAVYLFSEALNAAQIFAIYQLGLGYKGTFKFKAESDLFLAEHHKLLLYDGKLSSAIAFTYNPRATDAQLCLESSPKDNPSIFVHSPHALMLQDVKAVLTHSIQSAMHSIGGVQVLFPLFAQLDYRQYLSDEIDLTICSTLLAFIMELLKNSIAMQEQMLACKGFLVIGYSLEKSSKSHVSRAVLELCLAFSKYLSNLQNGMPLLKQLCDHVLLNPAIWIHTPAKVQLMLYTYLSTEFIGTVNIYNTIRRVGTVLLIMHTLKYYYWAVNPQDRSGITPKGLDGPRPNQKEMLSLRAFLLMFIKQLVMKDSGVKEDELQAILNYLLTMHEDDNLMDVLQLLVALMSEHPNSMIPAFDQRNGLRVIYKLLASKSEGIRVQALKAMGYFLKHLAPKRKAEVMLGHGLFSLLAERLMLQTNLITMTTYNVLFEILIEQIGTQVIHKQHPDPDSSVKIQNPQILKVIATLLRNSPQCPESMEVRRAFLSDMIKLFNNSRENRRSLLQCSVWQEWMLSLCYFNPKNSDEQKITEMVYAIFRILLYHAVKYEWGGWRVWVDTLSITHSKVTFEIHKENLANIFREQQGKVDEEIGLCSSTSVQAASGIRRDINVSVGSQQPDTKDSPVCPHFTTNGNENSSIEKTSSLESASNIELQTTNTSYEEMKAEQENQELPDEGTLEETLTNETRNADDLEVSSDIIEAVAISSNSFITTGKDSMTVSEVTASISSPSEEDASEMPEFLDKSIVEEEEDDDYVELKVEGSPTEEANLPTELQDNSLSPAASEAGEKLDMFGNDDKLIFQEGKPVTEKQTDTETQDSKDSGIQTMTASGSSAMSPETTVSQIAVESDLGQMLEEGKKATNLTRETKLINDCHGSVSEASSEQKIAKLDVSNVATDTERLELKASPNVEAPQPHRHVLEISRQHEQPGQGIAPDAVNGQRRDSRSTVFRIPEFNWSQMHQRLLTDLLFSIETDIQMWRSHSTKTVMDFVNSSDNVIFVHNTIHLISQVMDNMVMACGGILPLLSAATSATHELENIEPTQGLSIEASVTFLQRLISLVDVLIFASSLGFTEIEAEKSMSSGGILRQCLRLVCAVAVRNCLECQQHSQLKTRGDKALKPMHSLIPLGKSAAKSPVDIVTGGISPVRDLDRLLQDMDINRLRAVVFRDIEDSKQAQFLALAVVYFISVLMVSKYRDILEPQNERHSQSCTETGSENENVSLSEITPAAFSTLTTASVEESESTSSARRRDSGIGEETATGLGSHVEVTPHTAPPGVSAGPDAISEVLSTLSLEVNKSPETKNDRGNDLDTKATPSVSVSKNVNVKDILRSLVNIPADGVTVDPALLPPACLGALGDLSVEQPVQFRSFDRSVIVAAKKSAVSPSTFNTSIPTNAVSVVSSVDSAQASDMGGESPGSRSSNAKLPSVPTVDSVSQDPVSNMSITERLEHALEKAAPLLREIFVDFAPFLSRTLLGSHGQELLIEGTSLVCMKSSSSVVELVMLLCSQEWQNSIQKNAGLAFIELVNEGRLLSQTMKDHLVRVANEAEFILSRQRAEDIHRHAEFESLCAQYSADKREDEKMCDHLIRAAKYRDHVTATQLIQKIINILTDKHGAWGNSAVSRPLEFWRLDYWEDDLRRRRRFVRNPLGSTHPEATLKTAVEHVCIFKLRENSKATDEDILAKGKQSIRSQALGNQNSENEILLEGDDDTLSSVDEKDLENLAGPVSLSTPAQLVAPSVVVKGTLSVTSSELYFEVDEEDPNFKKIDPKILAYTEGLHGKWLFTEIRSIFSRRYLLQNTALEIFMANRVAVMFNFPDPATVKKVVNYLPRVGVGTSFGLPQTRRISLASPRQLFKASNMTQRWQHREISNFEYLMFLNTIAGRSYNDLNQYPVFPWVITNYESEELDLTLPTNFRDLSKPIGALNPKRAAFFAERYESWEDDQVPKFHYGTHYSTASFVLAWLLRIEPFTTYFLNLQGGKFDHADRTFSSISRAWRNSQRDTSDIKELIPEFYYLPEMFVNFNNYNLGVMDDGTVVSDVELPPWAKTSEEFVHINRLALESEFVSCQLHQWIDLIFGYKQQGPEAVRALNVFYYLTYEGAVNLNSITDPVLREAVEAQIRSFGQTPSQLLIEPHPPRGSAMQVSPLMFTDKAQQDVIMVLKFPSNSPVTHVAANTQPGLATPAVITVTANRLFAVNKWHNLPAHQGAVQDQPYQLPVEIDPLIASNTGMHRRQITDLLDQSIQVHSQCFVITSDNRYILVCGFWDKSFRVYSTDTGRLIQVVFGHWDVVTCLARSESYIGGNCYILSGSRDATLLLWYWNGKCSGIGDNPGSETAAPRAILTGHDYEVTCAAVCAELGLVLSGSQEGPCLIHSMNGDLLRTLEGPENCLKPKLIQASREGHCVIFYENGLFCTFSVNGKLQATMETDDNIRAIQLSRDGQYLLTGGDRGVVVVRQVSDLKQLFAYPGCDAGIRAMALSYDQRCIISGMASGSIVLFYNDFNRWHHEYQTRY

| SMILES | IC50 [nM] |
| --- | --- |
| C[C@@H]1CN(c2nccc(-c3cnc4ccccc4c3)n2)C[C@H](C)N1 [Compound 22, 3-(2-((3S,5R)-3,5-dimethylpiperazin-1-yl)pyrimidin-4-yl)quinoline] | > 2000 |
| CN1CCN(c2nccc(-c3cnc4ccccc4c3)n2)CC1 [Compound 23, 3-(2-(4-methylpiperazin-1-yl)pyrimidin-4-yl)quinoline] | > 2000 |
| O=CNCC1CCN(c2nccc(-c3ccc4ncccc4c3)n2)CC1 [Compound 4, N-((1-(4-(quinolin-6-yl)pyrimidin-2-yl)piperidin-4-yl)methyl)formamide] | > 2000 |
| NCCC1CCN(c2nccc(-c3cnc4ccccc4c3)n2)CC1 [Compound 19, 2-(1-(4-(quinolin-3-yl)pyrimidin-2-yl)piperidin-4-yl)ethylamine] | 200 to 1000 |
| O=CNCC1CCN(c2nccc(-c3cnc4ccccc4c3)n2)CC1 [Compound 2, N-((1-(4-(quinolin-3-yl)pyrimidin-2-yl)piperidin-4-yl)methyl)formamide] | > 2000 |
| NCC1CCN(c2nccc(-c3cc4ccccc4nc3N)n2)CC1 [Compound 16, 3-(2-(4-(aminomethyl)piperidin-1-yl)pyrimidin-4-yl)quinolin-2-amine] | > 2000 |
| NCC1CCN(c2nccc(-c3cc4ccccc4nc3O)n2)CC1 [Compound 10, 3-(2-(4-(aminomethyl)piperidin-1-yl)pyrimidin-4-yl)quinolin-2-ol] | < 200 |
| OCCC1CCN(c2nccc(-c3cnc4ccccc4c3)n2)CC1 [Compound 21, (1-(4-(quinolin-3-yl)pyrimidin-2-yl)piperidin-4-yl)ethanol] | > 2000 |
| COc1cc(-c2ccnc(N3CCNCC3)n2)cnc1O [Compound 34, 3-methoxy-5-(2-piperazin-1-yl-pyrimidin-4-yl)-pyridin-2-ol] | > 2000 |
| NCC1CCN(c2cccc(-c3cnc4ccccc4c3)c2)CC1 [Compound 15, (1-(3-(quinolin-3-yl)phenyl)piperidin-4-yl)methylamine] | > 2000 |
| COc1ccc(-c2ccnc(N3CCNCC3)n2)cc1OC [Compound 31, 4-(3,4-dimethoxy-phenyl)-2-piperazin-1-yl-pyrimidine] | > 2000 |
| c1ccc2cc(-c3ccnc(N4CCNCC4)n3)ccc2c1 [Comparing compound 1, reference compound] | > 2000 |
| c1ccc2ncc(-c3ccnc(N4CCCNCC4)n3)cc2c1 [Compound 24, 3-(2-(1,4-diaza-1-yl)pyrimidin-4-yl)quinoline] | > 2000 |
| NCC1CCN(c2nccc(-c3cnc4ccc(F)cc4c3)n2)CC1 [Compound 7, (1-(4-(6-fluoroquinolin-3-yl)pyrimidin-2-yl)piperidin-4-yl)methylamine] | 200 to 1000 |
| NCC1CCN(c2nccc(-c3ccc4ccccc4n3)n2)CC1 [Compound 5, (1-(4-(quinolin-2-yl)pyrimidin-2-yl)piperidin-4-yl)methylamine] | > 2000 |
| c1ccc2c(-c3ccnc(N4CCNCC4)n3)coc2c1 [Compound 33, 4-(benzofuran-3-yl)-2-(piperazin-1-yl)pyrimidine] | 200 to 1000 |
| c1ccc2ncc(-c3nc(N4CCNCC4)nc4c3CCCC4)cc2c1 [Compound 37, 2-(piperazin-1-yl)-4-(quinolin-3-yl)-5,6,7,8-tetrahydroquinazoline] | 200 to 1000 |

| SMILES | IC50 [nM] |
| --- | --- |
| c1cc(-c2ccc3c(c2)OCCO3)nc(N2CCNCC2)n1 [Compound 29, 4-(2,3-dihydrobenzo[b][1,4]dioxin-6-yl)-2-(piperazin-1-yl)pyrimidine] | > 2000 |
| OCC1CCN(c2nccc(-c3cnc4ccccc4c3)n2)CC1 [Compound 20, (1-(4-(quinolin-3-yl)pyrimidin-2-yl)piperidin-4-yl)methanol] | > 2000 |
| NCCNc1nccc(-c2cnc3ccccc3c2)n1 [Compound 26, N-(4-(quinolin-3-yl)pyrimidin-2-yl)ethane-1,2-diamine] | < 200 |
| NCC1CCN(c2cccc(-c3cnc4ccccc4c3)n2)CC1 [Compound 14, (1-(6-(quinolin-3-yl)pyridin-2-yl)piperidin-4-yl)methylamine] | > 2000 |
| NCC1CCN(c2nccc(-c3ccc4ncccc4c3)n2)CC1 [Compound 3, (1-(4-(quinolin-6-yl)pyrimidin-2-yl)piperidin-4-yl)methylamine] | > 2000 |
| [2H]c1nc2ccccc2cc1-c1ccnc(N2CCC(CN)CC2)n1 [Compound 11, (1-(4-(quinolin-3-yl-2-d)pyrimidin-2-yl)piperidin-4-yl)methylamine] | < 200 |
| c1ccc2c(-c3ccnc(N4CCNCC4)n3)c[nH]c2c1 [Compound 32, 3-(2-(piperazin-1-yl)pyrimidin-4-yl)-1H-indole] | 200 to 1000 |
| NC1CCN(c2nccc(-c3cnc4ccccc4c3)n2)CC1 [Compound 17, 1-(4-(quinolin-3-yl)pyrimidin-2-yl)piperidine-4-amine] | 200 to 1000 |
| NCCCNc1nccc(-c2cnc3ccccc3c2)n1 [Compound 27, N-(4-(quinolin-3-yl)pyrimidin-2-yl)propane-1,3-diamine] | 1000 to 2000 |
| NCC1CCN(c2nccc(-c3cc(=O)c4ccccc4o3)n2)CC1 [Compound 13, 2-(2-(4-(aminomethyl)piperidin-1-yl)pyrimidin-4-yl)-4hydro-benzopyran-4-one] | > 2000 |
| NCC1CCN(c2nccc(-c3cnc4ccccc4c3)n2)CC1 [Compound 1, (1-(4-(quinolin-3-yl)pyrimidin-2-yl)piperidin-4-yl)methylamine] | < 200 |
| c1ccc2ncc(-c3ncnc(N4CCNCC4)n3)cc2c1 [Compound 35, 3-(4-(piperazin-1-yl)-1,3,5-triazin-2-yl)quinoline] | < 200 |
| COc1cc(-c2ccnc(N3CCNCC3)n2)cnc1OC [Compound 30, 4-(5,6-dimethoxy-pyridin-3-yl)-2-piperazin-1-yl-pyrimidine] | > 2000 |
| c1ccc2ncc(-c3nc(N4CCNCC4)nc4ccccc34)cc2c1 [Compound 36, 2-(piperazin-1-yl)-4-(quinolin-3-yl)quinazoline] | 200 to 1000 |
| c1cc(-c2cnc3c(c2)OCCO3)nc(N2CCNCC2)n1 [Compound 28, 7-(2-(piperazin-1-yl)pyrimidin-4-yl)-2,3-dihydro-[1,4]dioxy[2,3-b]pyridine] | > 2000 |
| NCC1CCN(c2cc(-c3cnc4ccccc4c3)ccn2)CC1 [Compound 12, (1-(4-(quinolin-3-yl)pyridin-2-yl)piperidin-4-yl)methylamine] | > 2000 |

Next, values leading:

| IC50 [nM] | SMILES |
| --- | --- |
| < 200 | c1ccc2ncc(-c3nc(N4CCNCC4)ncc3C3CC3)cc2c1 [Compound 50, 3-(5-cyclopropyl-2-(piperazin-1-yl)pyrimidin-4-yl)quinoline] |
| < 200 | Nc1cc(-c2cnc3ccccc3c2)nc(N2CCNCC2)n1 [Compound 47, 2-(piperazin-1-yl)-6-(quinolin-3-yl)pyrimidin-4-amine] |
| < 200 | N#Cc1cc(-c2cnc3ccccc3c2)nc(N2CCNCC2)n1 [Compound 42, 3-(6-cyano-2-(piperazin-1-yl)pyrimidin-4-yl)quinoline] |
| 200 to 1000 | c1ccc2ncc(-c3cc4nccn4c(N4CCNCC4)n3)cc2c1 [Compound 41, 3-(5-(piperazin-1-yl)imidazo[1,2-c]pyrimidin-7-yl)quinoline] |
| < 200 | FC(F)(F)c1cc(-c2cnc3ccccc3c2)nc(N2CCNCC2)n1 [Compound 40, 3-(2-(piperazin-1-yl)-6-(trifluoromethyl)pyrimidin-4-yl)quinoline] |
| 200 to 1000 | c1ccc2ncc(-c3cc(N4CCOCC4)nc(N4CCNCC4)n3)cc2c1 [Compound 49, 4-(2-(piperazin-1-yl)-6-(quinolin-3-yl)pyrimidin-4-yl)morpholine] |
| < 200 | Cc1c(-c2cnc3ccccc3c2)ncnc1N1CCNCC1 [Compound 53, 3-(5-methyl-6-(piperazin-1-yl)pyrimidin-4-yl)quinoline] |
| < 200 | COc1cnc(N2CCNCC2)nc1-c1cnc2ccccc2c1 [Compound 43, 3-(5-methoxy-2-(piperazin-1-yl)pyrimidin-4-yl)quinoline] |
| 1000 to 2000 | Cn1ncc2c(-c3cnc4ccccc4c3)nc(N3CCNCC3)nc21 [Compound 52, 3-(1-methyl-6-(piperazin-1-yl)-1H-pyrazolo[3,4-d]pyrimidin-4-yl)quinoline] |
| < 200 | COc1ccc(-c2cc(-c3cnc4ccccc4c3)nc(N3CCNCC3)n2)cc1 [Compound 51, 3-(6-(4-methoxyphenyl)-2-(piperazin-1-yl)pyrimidin-4-yl)quinoline] |
| < 200 | Nc1cnc(N2CCNCC2)nc1-c1cnc2ccccc2c1 [Compound 38, 3-(5-amino-2-(piperazin-1-yl)pyrimidin-4-yl)quinoline] |
| 200 to 1000 | Cn1cnc2c(-c3cnc4ccccc4c3)nc(N3CCNCC3)nc21 [Compound 45, 3-(9-methyl-2-(piperazin-1-yl)-9H-purin-6-yl)quinoline] |
| < 200 | COc1cc(-c2cnc3ccccc3c2)nc(N2CCNCC2)n1 [Compound 39, 3-(6-methoxy-2-(piperazin-1-yl)pyrimidin-4-yl)quinoline] |
| 1000 to 2000 | Nc1cc(N2CCNCC2)nc(-c2cnc3ccccc3c2)n1 [Compound 48, 6-(piperazin-1-yl)-2-(quinolin-3-yl)pyrimidin-4-amine] |
| < 200 | Fc1cnc(N2CCNCC2)nc1-c1cnc2ccccc2c1 [Compound 46, 3-(5-fluoro-2-(piperazin-1-yl)pyrimidin-4-yl)quinoline] |
